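Test compounds were applied to cells in 96-well plates for 48 hours at 5 doses. At the TGI there is no net growth.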
How the values were obtained:
Assay in all cases: inhibition of tumour cell growth, NCI panel, 48 h
786-0 renal = tested on: 786-0 renal
A498 renal = tested on: A498 renal
A549 NSCLC = tested on: A549 NSCLC
ACHN renal = tested on: ACHN renal
CCRF-CEM leukemia = tested on: CCRF-CEM leukemia
COLO 205 colon = tested on: COLO 205 colon
DLD-1 colon = tested on: DLD-1 colon
DMS 114 small cell lung = tested on: DMS 114 small cell lung
DMS 273 small cell lung = tested on: DMS 273 small cell lung
EKVX NSCLC = tested on: EKVX NSCLC
HCC-2998 colon = tested on: HCC-2998 colon
HCT-116 colon = tested on: HCT-116 colon
HCT-15 colon = tested on: HCT-15 colon
HL-60(TB) leukemia = tested on: HL-60(TB) leukemia
HOP-18 NSCLC = tested on: HOP-18 NSCLC
HOP-62 NSCLC = tested on: HOP-62 NSCLC
HT29 colon = tested on: HT29 colon
IGROV1 ovarian = tested on: IGROV1 ovarian
K-562 leukemia = tested on: K-562 leukemia
KM12 colon = tested on: KM12 colon
KM20L2 colon = tested on: KM20L2 colon
LOX IMVI melanoma = tested on: LOX IMVI melanoma
LXFL 529 NSCLC = tested on: LXFL 529 NSCLC
M14 melanoma = tested on: M14 melanoma
M19-MEL melanoma = tested on: M19-MEL melanoma
MALME-3M melanoma = tested on: MALME-3M melanoma
MOLT-4 leukemia = tested on: MOLT-4 leukemia
NCI-H226 lung = tested on: NCI-H226 lung
NCI-H23 lung = tested on: NCI-H23 lung
NCI-H460 lung = tested on: NCI-H460 lung
NCI-H522 lung = tested on: NCI-H522 lung
OVCAR-3 ovarian = tested on: OVCAR-3 ovarian
OVCAR-4 ovarian = tested on: OVCAR-4 ovarian
OVCAR-5 ovarian = tested on: OVCAR-5 ovarian
OVCAR-8 ovarian = tested on: OVCAR-8 ovarian
RPMI-8226 leukemia = tested on: RPMI-8226 leukemia
RXF 393 renal = tested on: RXF 393 renal
SF-268 CNS = tested on: SF-268 CNS
SF-295 CNS = tested on: SF-295 CNS
SF-539 CNS = tested on: SF-539 CNS
SK-MEL-28 melanoma = tested on: SK-MEL-28 melanoma
SK-MEL-5 melanoma = tested on: SK-MEL-5 melanoma
SK-OV-3 ovarian = tested on: SK-OV-3 ovarian
SN12C renal = tested on: SN12C renal
SNB-19 CNS = tested on: SNB-19 CNS
SNB-75 CNS = tested on: SNB-75 CNS
SNB-78 CNS = tested on: SNB-78 CNS
SR leukemia = tested on: SR leukemia
SW-620 colon = tested on: SW-620 colon
TK-10 renal = tested on: TK-10 renal
U251 CNS = tested on: U251 CNS
UACC-257 melanoma = tested on: UACC-257 melanoma
UACC-62 melanoma = tested on: UACC-62 melanoma
UO-31 renal = tested on: UO-31 renal
XF 498 CNS = tested on: XF 498 CNS
CAKI-1 renal = tested on: CAKI-1 renal
HOP-92 NSCLC = tested on: HOP-92 NSCLC
SK-MEL-2 melanoma = tested on: SK-MEL-2 melanoma

COc1ccccc1N=Nc1c(-c2ccccc2)nn(C(=O)CC(=O)Nc2ccccc2Cl)c1-c1ccccc1
TGI (786-0 renal): > 100 µM
TGI (A498 renal): > 100 µM
TGI (A549 NSCLC): > 100 µM
TGI (ACHN renal): > 100 µM
TGI (CCRF-CEM leukemia): > 100 µM
TGI (COLO 205 colon): > 100 µM
TGI (DLD-1 colon): > 100 µM
TGI (DMS 114 small cell lung): > 100 µM
TGI (DMS 273 small cell lung): > 100 µM
TGI (EKVX NSCLC): > 100 µM
TGI (HCC-2998 colon): > 100 µM
TGI (HCT-116 colon): > 100 µM
TGI (HCT-15 colon): > 100 µM
TGI (HL-60(TB) leukemia): > 100 µM
TGI (HOP-18 NSCLC): > 100 µM
TGI (HOP-62 NSCLC): > 100 µM
TGI (HT29 colon): > 100 µM
TGI (IGROV1 ovarian): > 100 µM
TGI (K-562 leukemia): > 100 µM
TGI (KM12 colon): > 100 µM
TGI (KM20L2 colon): > 100 µM
TGI (LOX IMVI melanoma): > 100 µM
TGI (LXFL 529 NSCLC): > 100 µM
TGI (M14 melanoma): > 100 µM
TGI (M19-MEL melanoma): > 100 µM
TGI (MALME-3M melanoma): > 100 µM
TGI (MOLT-4 leukemia): > 100 µM
TGI (NCI-H226 lung): > 100 µM
TGI (NCI-H23 lung): > 100 µM
TGI (NCI-H460 lung): > 100 µM
TGI (NCI-H522 lung): > 100 µM
TGI (OVCAR-3 ovarian): > 100 µM
TGI (OVCAR-4 ovarian): > 100 µM
TGI (OVCAR-5 ovarian): > 100 µM
TGI (OVCAR-8 ovarian): > 100 µM
TGI (RPMI-8226 leukemia): > 100 µM
TGI (RXF 393 renal): > 100 µM
TGI (SF-268 CNS): > 100 µM
TGI (SF-295 CNS): > 100 µM
TGI (SF-539 CNS): > 100 µM
TGI (SK-MEL-28 melanoma): > 100 µM
TGI (SK-MEL-5 melanoma): > 100 µM
TGI (SK-OV-3 ovarian): > 100 µM
TGI (SN12C renal): > 100 µM
TGI (SNB-19 CNS): > 100 µM
TGI (SNB-75 CNS): > 100 µM
TGI (SNB-78 CNS): > 100 µM
TGI (SR leukemia): > 100 µM
TGI (SW-620 colon): > 100 µM
TGI (TK-10 renal): > 100 µM
TGI (U251 CNS): > 100 µM
TGI (UACC-257 melanoma): > 100 µM
TGI (UACC-62 melanoma): > 100 µM
TGI (UO-31 renal): > 100 µM
TGI (XF 498 CNS): > 100 µM

COc1ccc(/C=C/C(=O)C(C)C)cc1
TGI (786-0 renal): > 100 µM
TGI (A498 renal): > 100 µM
TGI (A549 NSCLC): > 100 µM
TGI (ACHN renal): > 100 µM
TGI (CAKI-1 renal): > 100 µM
TGI (CCRF-CEM leukemia): > 100 µM
TGI (COLO 205 colon): > 100 µM
TGI (DLD-1 colon): > 100 µM
TGI (DMS 114 small cell lung): 43 µM
TGI (DMS 273 small cell lung): > 100 µM
TGI (EKVX NSCLC): > 100 µM
TGI (HCC-2998 colon): > 100 µM
TGI (HCT-116 colon): > 100 µM
TGI (HCT-15 colon): > 100 µM
TGI (HL-60(TB) leukemia): 59.2 µM
TGI (HOP-18 NSCLC): > 100 µM
TGI (HOP-62 NSCLC): > 100 µM
TGI (HOP-92 NSCLC): > 100 µM
TGI (HT29 colon): 79.6 µM
TGI (IGROV1 ovarian): > 100 µM
TGI (K-562 leukemia): > 100 µM
TGI (KM12 colon): 98 µM
TGI (KM20L2 colon): 64.3 µM
TGI (LOX IMVI melanoma): > 100 µM
TGI (LXFL 529 NSCLC): 54.9 µM
TGI (M14 melanoma): > 100 µM
TGI (M19-MEL melanoma): > 100 µM
TGI (MALME-3M melanoma): > 100 µM
TGI (MOLT-4 leukemia): > 100 µM
TGI (NCI-H23 lung): > 100 µM
TGI (NCI-H460 lung): > 100 µM
TGI (NCI-H522 lung): 41.7 µM
TGI (OVCAR-3 ovarian): 61.4 µM
TGI (OVCAR-4 ovarian): > 100 µM
TGI (OVCAR-5 ovarian): > 100 µM
TGI (OVCAR-8 ovarian): > 100 µM
TGI (SF-268 CNS): > 100 µM
TGI (SF-295 CNS): > 100 µM
TGI (SF-539 CNS): > 100 µM
TGI (SK-MEL-2 melanoma): 73.8 µM
TGI (SK-MEL-28 melanoma): > 100 µM
TGI (SK-MEL-5 melanoma): > 100 µM
TGI (SK-OV-3 ovarian): 90.6 µM
TGI (SN12C renal): > 100 µM
TGI (SNB-19 CNS): > 100 µM
TGI (SNB-75 CNS): > 100 µM
TGI (SNB-78 CNS): 46.7 µM
TGI (SR leukemia): > 100 µM
TGI (SW-620 colon): > 100 µM
TGI (TK-10 renal): > 100 µM
TGI (U251 CNS): > 100 µM
TGI (UACC-257 melanoma): > 100 µM
TGI (UACC-62 melanoma): > 100 µM
TGI (UO-31 renal): > 100 µM
TGI (XF 498 CNS): > 100 µM

— PubChem BioAssay (NCI)
